Experimental data as given in ChEMBL document CHEMBL5505999, “Discovery of anti-inflammatory agents from 3, 4-dihydronaphthalene-1(2H)-one derivatives by inhibiting NLRP3 inflammasome activation” (Eur J Med Chem, 2024).

Assays:
[1] = system: RAW264.7; experiment: Anti-inflammatory activity in mouse RAW264.7 cells assessed as inhibition of LPS-induced TNF-alpha production at 2.5 uM pretreated with compound for 2 hrs followed by LPS addition and measured after 22 hrs by ELISA relative to control; type: functional; conditions: time 24 hrs
[2] = system: RAW264.7; experiment: Anti-inflammatory activity in mouse RAW264.7 cells assessed as inhibition of LPS-induced IL-6 production at 2.5 uM pretreated with compound for 2 hrs followed by LPS addition and measured after 22 hrs by ELISA relative to control; type: functional; conditions: time 24 hrs
[3] = Cytotoxicity against mouse RAW264.7 cells assessed as survival rate at 2.5 uM incubated overnight by CCK-8 assay relative to control; type: toxicity, cell-based; conditions: read-out: Survival
[4] = system: RAW264.7; experiment: Anti-inflammatory activity in mouse RAW264.7 cells assessed as inhibition of LPS-induced TNF-alpha production at 10 uM pretreated with compound for 2 hrs followed by LPS addition and measured after 22 hrs by ELISA relative to control; type: functional; conditions: time 24 hrs
[5] = system: RAW264.7; experiment: Anti-inflammatory activity in mouse RAW264.7 cells assessed as inhibition of LPS-induced IL-6 production at 10 uM pretreated with compound for 2 hrs followed by LPS addition and measured after 22 hrs by ELISA relative to control; type: functional; conditions: time 24 hrs

| SMILES | inhibition at 2.5 µM [1] [%] | inhibition at 2.5 µM [2] [%] | viability at 2.5 µM [3] [%] | inhibition at 10 µM [4] [%] | inhibition at 10 µM [5] [%] |
| --- | --- | --- | --- | --- | --- |
| CN1CCN(c2ccc(/C=C3\CCc4cc(Br)ccc4C3=O)cn2)CC1 | 39 | 54.7 | 87.8 |  |  |
| O=C1/C(=C/c2ccc(N3CCOCC3)cc2)CCc2ccc(Br)cc21 | 22.4 | 38.6 | 82.7 |  |  |
| O=C1/C(=C/c2ccc(N3CCOCC3)cc2)CCc2cc(Br)ccc21 | 29.6 | 46.4 | 92.8 |  |  |
| O=C1/C(=C/c2ccc(N3CCOCC3)nc2)CCc2ccc(Br)cc21 | 23.8 | 36.1 | 96.2 |  |  |
| O=C1/C(=C/c2ccc(-n3ccnc3)cc2)CCc2ccc(O)cc21 | 25.3 | 50.2 | 87.1 |  |  |
| CN1CCN(c2ccc(/C=C3\CCc4ccc(O)cc4C3=O)nc2)CC1 | 41.6 | 56.7 | 98.6 |  |  |
| O=C1/C(=C/c2ccc(N3CCOCC3)nc2)CCc2cc(F)ccc21 | 31 | 47.7 | 85.2 |  |  |
| COc1ccc2c(c1)CC/C(=C\c1ccc(N3CCOCC3)cc1)C2=O | 31.6 | 53.1 | 89.3 |  |  |
| COc1ccc2c(c1)C(=O)/C(=C/c1ccc(N3CCN(C)CC3)cc1)CC2 | 33.6 | 50.1 | 98 |  |  |
| COc1ccc2c(c1)C(=O)/C(=C/c1ccc(N3CCOCC3)cc1)CC2 | 30.5 | 47.2 | 82.2 |  |  |
| COc1ccc2c(c1)C(=O)/C(=C/c1ccc(N3CCOCC3)nc1)CC2 | 27.6 | 44.3 | 82.4 |  |  |
| COc1ccc2c(c1)C(=O)/C(=C/c1ccc(-n3ccnc3)cc1)CC2 | 39.8 | 55.3 | 88.7 |  |  |
| O=C1/C(=C/c2ccc(N3CCOCC3)cc2)CCc2cc(F)ccc21 | 32.1 | 48.7 | 81.1 |  |  |
| CN1CCN(c2ccc(/C=C3\CCc4ccc(F)cc4C3=O)cn2)CC1 | 35.3 | 51.6 | 88.7 |  |  |
| CN1CCN(c2ccc(/C=C3\CCc4cc(Br)ccc4C3=O)nc2)CC1 | 40.6 | 55.9 | 96.8 |  |  |
| COc1ccc2c(c1)C(=O)/C(=C/c1ccc(OC)c(C(F)(F)F)c1)CC2 | 51 | 44.2 | 114 |  |  |
| O=C1/C(=C/c2ccc(N3CCOCC3)cc2)CCc2ccc(F)cc21 | 29.5 | 46.2 | 82.7 |  |  |
| O=C1/C(=C/c2ccc(N3CCOCC3)cc2)CCc2ccc(O)cc21 | 32.3 | 48.9 | 81.6 |  |  |
| CN1CCN(c2ccc(/C=C3\CCc4ccc(O)cc4C3=O)cc2)CC1 | 41.1 | 56.3 | 103 |  |  |
| O=C1/C(=C/c2ccc(-n3ccnc3)cc2)CCc2ccc(F)cc21 | 19 | 34.3 | 98 |  |  |
| O=C1/C(=C/c2ccc(-n3ccnc3)cc2)CCc2cc(F)ccc21 | 39.4 | 54.9 | 80.7 |  |  |

| SMILES | inhibition at 2.5 µM [1] [%] | inhibition at 2.5 µM [2] [%] | viability at 2.5 µM [3] [%] | inhibition at 10 µM [4] [%] | inhibition at 10 µM [5] [%] |
| --- | --- | --- | --- | --- | --- |
| CN1CCN(c2ccc(/C=C3\CCc4ccc(Br)cc4C3=O)cc2)CC1 | 49.8 | 62.6 | 116 |  |  |
| CN1CCN(c2ccc(/C=C3\CCc4ccc(F)cc4C3=O)cc2)CC1 | 37.3 | 57.3 | 91.5 |  |  |
| COc1ccc2c(c1)C(=O)/C(=C/c1ccc(N3CCN(C)CC3)nc1)CC2 | 34.7 | 51.1 | 84.9 |  |  |
| COc1ccc2c(c1)C(=O)/C(=C/c1ccc(N3CCN(C)CC3)cn1)CC2 | 35.3 | 51.6 | 89 |  |  |
| COc1ccc2c(c1)CC/C(=C\c1ccc(N3CCN(C)CC3)cc1)C2=O | 34.6 | 50.9 | 91.3 |  |  |
| CN1CCN(c2ccc(/C=C3\CCc4cc(F)ccc4C3=O)cc2)CC1 | 37.1 | 48.4 | 90.5 |  |  |
| O=C1/C(=C/c2ccc(N3CCOCC3)nc2)CCc2ccc(O)cc21 | 30.8 | 48 | 104 |  |  |
| COc1ccc2c(c1)CC/C(=C\c1ccc(N3CCN(C)CC3)nc1)C2=O | 39.6 | 55 | 88.9 |  |  |
| COc1ccc2c(c1)CC/C(=C\c1ccc(N3CCOCC3)nc1)C2=O | 45 | 59.2 | 96 |  |  |
| CN1CCN(c2ccc(/C=C3\CCc4ccc(O)cc4C3=O)cn2)CC1 | 55.9 | 66.6 | 85.5 |  |  |
| O=C1/C(=C/c2ccc(-n3ccnc3)cc2)CCc2cc(Br)ccc21 | 32.4 | 49 | 82.6 |  |  |
| CN1CCN(c2ccc(/C=C3\CCc4ccc(Br)cc4C3=O)cn2)CC1 | 51 | 63.4 | 104 |  |  |
| S=C(S)N1CCCC1 [PYRROLIDINE DITHIOCARBAMATE] |  |  |  | 36 | 48 |
| O=C1/C(=C/c2ccc(-n3ccnc3)cc2)CCc2ccc(Br)cc21 | 39.8 | 55.3 | 91.2 |  |  |
| O=C1/C(=C/c2ccc(N3CCOCC3)nc2)CCc2cc(Br)ccc21 | 31.4 | 47.5 | 86.2 |  |  |
| COc1ccc2c(c1)CC/C(=C\c1ccc(-n3ccnc3)cc1)C2=O | 31.7 | 48.2 | 92.8 |  |  |
| CN1CCN(c2ccc(/C=C3\CCc4ccc(F)cc4C3=O)nc2)CC1 | 30.5 | 47.2 | 93.5 |  |  |
| CN1CCN(c2ccc(/C=C3\CCc4cc(F)ccc4C3=O)cn2)CC1 | 32.8 | 49.3 | 98.2 |  |  |
| CN1CCN(c2ccc(/C=C3\CCc4cc(Br)ccc4C3=O)cc2)CC1 | 42.4 | 53.3 | 87 |  |  |
| O=C1/C(=C/c2ccc(N3CCOCC3)nc2)CCc2ccc(F)cc21 | 23.8 | 40.2 | 99.8 |  |  |
